The data set can be described thus: Particle size distribution by laser diffraction (Sympatec Helos). The format is physicochemical. The note with it: for particle size: product of the prior process (background statement), method not stated at that place. From the text: As used herein, “particle size distribution” means the cumulative volume size distribution of equivalent spherical diameters as determined by laser diffraction at 1 bar dispersive pressure in a Sympatec Helos equipment. “Median particle size”, correspondingly, means the median of said particle size distribution.
A wet filter cake obtained by precipitation of crude escitalopram oxalate by mixing of ethanolic solutions of escitalopram and oxalic acid, respectively, and containing approximately 35 kg escitalopram oxalate was suspended in 322 L ethanol. The material was dissolved by heating to reflux, and 150 L ethanol was removed by distillation. Cooling was applied, and the mixture was cooled from reflux to 15° C. with a cooling rate between 0.2 and 0.5° C./min in the temperature interval 80 to 40° C. During cooling, the mixture was seeded with escitalopram oxalate at 75, 65 and 60° C. (10 g each time). The crystallization mixture was kept at 15° C. for 10 hours before the crystalline escitalopram oxalate was isolated. Purified escitalopram oxalate (27.7 kg, […]) was obtained by filtration of the crystallization mixture, washing with ethanol and drying of the filter cake.

Each structure is given as a SMILES string. Counter-ions that a name gives are not always drawn.

With `CN(C)CCC[C@@]1(c2ccc(F)cc2)OCc2cc(C#N)ccc21.O=C(O)C(=O)O` [Example 1, (S)-1-[3-(dimethylamino)propyl]-1-(4-fluorophenyl)-1,3-dihydro-5-isobenzofurancarbonitrile oxalate], the “Particle size distribution, 10% quantile” value (Quantile 10%, cumulative volume size distribution, Sympatec Helos, 1 bar dispersive pressure) is given as 13 μm. For the setting “Quantile 50%, cumulative volume size distribution, Sympatec Helos, 1 bar dispersive pressure”, the “Particle size distribution, 50% quantile (median particle size)” value is recorded as 163 μm. Besides, the “Particle size distribution, 90% quantile” value (Quantile 90%, cumulative volume size distribution, Sympatec Helos, 1 bar dispersive pressure) came out at 455 μm.

For the molecule `CN(C)CCCC1(c2ccc(F)cc2)OCc2cc(C#N)ccc21` (centres unmarked) [citalopram hydrobromide, reference compound], the particle size is 2-20 μm.

Consider `CN(C)CCC[C@@]1(c2ccc(F)cc2)OCc2cc(C#N)ccc21.O=C(O)C(=O)O` [escitalopram oxalate, (S)-1-[3-(dimethylamino)propyl]-1-(4-fluorophenyl)-1,3-dihydro-5-isobenzofurancarbonitrile oxalate, reference compound], for which the particle size is 2-20 μm.

(Values after patent publication US7420069B2, “Crystalline composition containing escitalopram” (H. Lundbeck A/S, priority 2001, dated 2008).)
